# Measurements from US6835567B1, “PNS cell lines and methods of use therefor” (priority 1998, dated 2004).
# “Also recorded” adds a separate entry of the source.
# What was measured:
# HDRGVIII-C10 cells = assay: NF160 immunolabeling after differentiation of […]-C10; assay type: cell-based; details: 10 days with tetracycline, human serum, GDNF, CNTF, NGF plus forskolin (10 μM) or retinoic acid (0.5 μM)
# Source text: Neuronal differentiation. […] After differentiation, phase-bright cells extending long fasciculating processes were present.
# HDRGVIII-C10.6 cells [1] = assay: Whole-cell patch clamp characterization of […]-C10.6; assay type: cell-based, human; details: for I Purinergic (αβmeATP): 100 μM; for I Capsaicin: 1 μM
# [2] = tested on: differentiated immortalized rat DRG cells; assay: Whole-cell patch clamp, ATP current in rat DRG cells; assay type: cell-based; details: for desensitization of elicited currents: 100 μM, 5-second applications, differentiated 3-4 weeks
# [3] = tested on: differentiated HDRGVIII-C10 cells; assay: Whole-cell patch clamp, ATP current in […]-C10; assay type: cell-based, human; details: 10 μM; differentiated 1-2 weeks
# [4] = tested on: immortalized rat DRG cultures; assay: βIII tubulin and NF160 immunolabeling, immortalized rat DRG cultures; assay type: cell-based; details: for βIII-tubulin positive cells: 10 ng/mL in combination with NGF, rat serum and retinoic acid, rat tail collagen substrate
# v-myc oncoprotein = assay: Immunocytochemistry for v-myc in […]-C10; assay type: cell-based, human; details: after 6 days of tetracycline treatment (75±1.3% in proliferative condition)
# [5] = tested on: conditionally-immortalized rat neural crest stem cells; assay: βIII tubulin immunolabeling, immortalized rat neural crest stem cells; assay type: cell-based; details: with tetracycline, 5 days; LIF 100 ng/ml; EFN = EGF 100 ng/ml, FGF-2 4 ng/ml, NGF 2.0 ng/ml
# [6] = tested on: differentiated immortalized rat DRG cells; assay: Whole-cell patch clamp, capsaicin current in rat DRG cells; assay type: cell-based; details: differentiated rat DRG cells (n=6)
# capsaicin receptors [7] = molecular target: T1, capsaicin receptors (Homo sapiens, UniProt Q8NER1); assay: Cobalt histology for capsaicin sensitivity, […]-C11; assay type: cell-based
# T1 construct: endogenous in cells
# T1 sequence (Q8NER1 whole entry): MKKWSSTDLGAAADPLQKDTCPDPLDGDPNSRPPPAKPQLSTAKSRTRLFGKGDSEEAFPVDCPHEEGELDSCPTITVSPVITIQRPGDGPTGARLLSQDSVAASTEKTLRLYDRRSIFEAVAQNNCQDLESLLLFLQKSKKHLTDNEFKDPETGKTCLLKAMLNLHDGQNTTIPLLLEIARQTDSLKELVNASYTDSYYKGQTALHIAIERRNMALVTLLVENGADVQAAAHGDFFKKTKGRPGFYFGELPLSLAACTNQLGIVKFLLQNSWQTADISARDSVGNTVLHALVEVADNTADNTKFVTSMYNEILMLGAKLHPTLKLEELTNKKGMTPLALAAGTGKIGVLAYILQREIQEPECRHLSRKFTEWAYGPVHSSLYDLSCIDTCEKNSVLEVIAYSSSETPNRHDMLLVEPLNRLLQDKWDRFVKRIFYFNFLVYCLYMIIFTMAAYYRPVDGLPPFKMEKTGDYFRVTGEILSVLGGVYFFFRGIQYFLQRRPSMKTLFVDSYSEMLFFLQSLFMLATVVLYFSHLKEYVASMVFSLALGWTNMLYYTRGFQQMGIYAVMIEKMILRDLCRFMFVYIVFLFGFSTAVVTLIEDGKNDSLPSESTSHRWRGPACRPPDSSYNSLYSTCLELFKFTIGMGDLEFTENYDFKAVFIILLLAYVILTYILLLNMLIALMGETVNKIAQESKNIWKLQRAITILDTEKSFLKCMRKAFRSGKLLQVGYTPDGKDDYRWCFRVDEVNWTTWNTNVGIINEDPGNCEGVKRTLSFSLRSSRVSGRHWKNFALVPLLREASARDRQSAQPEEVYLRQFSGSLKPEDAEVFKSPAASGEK
# Source text: (§1) In certain aspects of the present invention, conditionally-immortalized PNS progenitor cell lines may be used in a variety of in vitro assays and screens. In one such aspect, the cell lines may be used in in vitro assays for agents that inhibit the capsaicin response. Briefly, a clonal neuronal cell line may be differentiated under conditions in which capsaicin responsiveness can be assessed with a cobalt histological method. Capsaicin can be added to the culture in the presence or absence of a candidate agent, and cobalt uptake evaluated. Agents that block cobalt staining may act as capsaicin receptor antagonists.
# capsaicin receptors [8] = molecular target: T1, capsaicin receptors; assay: Whole-cell patch clamp, capsaicin current in […]-C10; assay type: cell-based
# capsaicin receptors [9] = molecular target: T1, capsaicin receptors; assay: Cobalt histology for capsaicin sensitivity, […]-C10.6; assay type: cell-based; details: 10 μM capsaicin; differentiated 7 days with T, HS, Fsk, G, C, N plus NT-3
# Source text: as §1
# HDRGVIII-C11 cells = assay: βIII-tubulin-positive neurons after differentiation of […]-C11; assay type: cell-based, human
# HDRGVIII-C10.6 cells [10] = assay: Peripherin immunolabeling after differentiation of […]-C10.6; assay type: cell-based, human; details: T, HS, Fsk, G, C, N, plus NT-3 (25 ng/ml), 5 days (31±9% without NT-3)
molecule,measurement,setting,value
CC1=C(/C=C/C(C)=C/C=C/C(C)=C/C(=O)O)C(C)(C)CCC1 [retinoic acid],cells with NF160 staining,HDRGVIII-C10 cells,8.1%
"NC1=N[C@H](O)[C@H]2[C@H]3O[C@]4(O)O[C@@H]([C@@H](O)[C@@]2(N1)[C@@H]4O)[C@]3(O)CO [TTX, tetrodotoxin]",sensitivity of voltage-gated sodium currents,HDRGVIII-C10.6 cells [1],TTX-sensitive
Nc1ncnc2c1ncn2[C@@H]1O[C@H](COP(=O)(O)OP(=O)(O)OP(=O)(O)O)[C@@H](O)[C@H]1O [ATP],desensitization of elicited currents,[2],~15%
same,cells with ATP-activated current,[2]; after 1 week of differentiation (n=14),no cells
same,cells with ATP-activated current,[2]; after 3 weeks of differentiation,~30%
"Nc1ncnc2c1ncn2[C@@H]1O[C@H](COP(=O)(O)CP(=O)(O)OP(=O)(O)O)[C@@H](O)[C@H]1O [αβ-meATP, αβ-methylene-ATP]",currents elicited,[3],Rapidly activating and strongly desensitizing currents
same,I Purinergic (αβmeATP),"HDRGVIII-C10.6 cells [1]; Proliferative, held at -80 mV",29 ± 15 pA
same,I Purinergic (αβmeATP),"HDRGVIII-C10.6 cells [1]; THSFskGCN, 8 days",3 ± 3 pA
same,I Purinergic (αβmeATP),"HDRGVIII-C10.6 cells [1]; THSFskGCN, 11 days",226 ± 80 pA
same,desensitization of elicited currents,[2],~15%
same,cells with αβ-meATP responses,[2]; differentiated rat DRG cells,1 of 20
CN(C)[C@@H]1C(O)=C(C(N)=O)C(=O)[C@@]2(O)C(O)=C3C(=O)c4c(O)cccc4[C@@](C)(O)[C@H]3C[C@@H]12 [tetracycline],βIII tubulin positive neurons,[4]; tetracycline alone,~2.5%
same,percentage of v-myc positive cells,v-myc oncoprotein,1.1±0.8%
LIF: leukemia inhibitory factor,βIII tubulin positive cells,[5],28.4%
C=C[C@@]1(C)CC(=O)[C@]2(O)[C@@]3(C)[C@@H](O)CCC(C)(C)[C@@H]3[C@H](O)[C@H](OC(C)=O)[C@@]2(C)O1 [forskolin],cells with NF160 staining,HDRGVIII-C10 cells,15±2.2%
COc1cc(CNC(=O)CCCC/C=C/C(C)C)ccc1O [capsaicin],response to capsaicin,[6],did not exhibit responses
same,cells with neuronal morphology sensitive to capsaicin (cobalt precipitate),"capsaicin receptors [7]; 10 μM or 100 μM, differentiated with T, HS, Fsk, G, C, N plus NT-3",Approximately 30%
same,I Capsaicin,"HDRGVIII-C10.6 cells [1]; Proliferative, held at -80 mV",0 pA
same,I Capsaicin,"HDRGVIII-C10.6 cells [1]; THSFskGCN, 8 days",114 ± 14 pA
same,I Capsaicin,"HDRGVIII-C10.6 cells [1]; THSFskGCN, 11 days",217 ± 36 pA
same,response to capsaicin,"capsaicin receptors [8]; 1 μM, differentiated cells with neuronal morphology",exhibited responses
same,response to capsaicin,capsaicin receptors [8]; prior to differentiation,no immortalized human PNS HDRGVIII-C10 cells exhibited responses
same,cells with neuronal morphology exhibiting cobalt uptake,capsaicin receptors [9],30.8±2.9%
Oc1cc2c(cc1O)CN(C(=S)NCCc1ccc(Cl)cc1)CCC2 [capsazepine],effect on capsaicin (10 μM)-induced cobalt labeling,capsaicin receptors [7]; 100 μM capsazepine,reduced substantially
same,effect on response to 1 μM capsaicin,capsaicin receptors [8]; 20 μM capsazepine,blocked; also recorded: inhibited
IL-1β: interleukin-1β,βIII-tubulin positive cells,[4],33%
"IL-11: interleukin IL-11, differentiating factor (protein, UniProt P20809 22-199, looked up) Interleukin-11: PGPPPGPPRVSPDPRAELDSTVLLTRSLLADTRQLAAQLRDKFPADGDHNLDSLPTLAMSAGALGALQLPGVLTRLRADLLSYLRHVQWLRRAGGSSLKTLEPELGTLQARLDRLLRRLQLLMSRLALPQPPPDPPAPPLAPPSSAWGGIRAAHAILGGLHLTLDWAVRGLLLLKTRL",βIII-tubulin positive cells,[4],34%
same,βIII-tubulin-positive neurons,"HDRGVIII-C11 cells; differentiated with T, HS, Fsk, NGF plus IL-11",1.5±0.9%
"NT-3: neurotrophin-3 (protein, UniProt P20783 139-257, looked up) Neurotrophin-3: YAEHKSHRGEYSVCDSESLWVTDKSSAIDIRGHQVTVLGEIKTGNSPVKQYFYETRCKEARPVKNGCRGIDDKHWNSQCKTSQTYVRALTSENNKLVGWRWIRIDTSCVCALSRKIGRT",cells expressing peripherin,HDRGVIII-C10.6 cells [10],43±8%
same,βIII tubulin positive cells expressing NF160,[4]; NT-3 added to medium containing NGF plus LIF or CNTF (less than 25% in absence of NT-3),≥ 65%
same,cells differentiated into βIII-tubulin-positive neurons,HDRGVIII-C11 cells; NT-3 added to standard differentiating medium (1.4±0.6% without NT-3),4.0±2.2%
